Measured values reported in publication PMC8376405 (Protein Science : A Publication of the Protein Society, 2021).

Legend:
CtTrpAB = target: T1, CtTrpAB (Chlamydia trachomatis, UniProt O84172); experiment: X-ray crystal structure, […] Å; assay type: binding; conditions: covalent adduct to beta Lys84 in TrpB; sulfate in the serine site
T1 sequence (O84172 1-392): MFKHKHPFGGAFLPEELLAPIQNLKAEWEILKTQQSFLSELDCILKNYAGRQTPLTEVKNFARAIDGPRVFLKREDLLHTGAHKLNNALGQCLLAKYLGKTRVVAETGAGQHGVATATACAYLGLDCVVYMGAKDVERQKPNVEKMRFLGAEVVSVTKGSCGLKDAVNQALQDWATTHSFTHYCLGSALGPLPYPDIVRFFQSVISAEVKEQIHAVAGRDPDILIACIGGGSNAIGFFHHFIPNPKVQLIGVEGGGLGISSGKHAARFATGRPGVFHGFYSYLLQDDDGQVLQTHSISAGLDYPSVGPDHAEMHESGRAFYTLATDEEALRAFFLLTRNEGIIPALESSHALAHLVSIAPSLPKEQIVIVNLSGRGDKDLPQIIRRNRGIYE
T1 sequence (O84173 1-253 partner): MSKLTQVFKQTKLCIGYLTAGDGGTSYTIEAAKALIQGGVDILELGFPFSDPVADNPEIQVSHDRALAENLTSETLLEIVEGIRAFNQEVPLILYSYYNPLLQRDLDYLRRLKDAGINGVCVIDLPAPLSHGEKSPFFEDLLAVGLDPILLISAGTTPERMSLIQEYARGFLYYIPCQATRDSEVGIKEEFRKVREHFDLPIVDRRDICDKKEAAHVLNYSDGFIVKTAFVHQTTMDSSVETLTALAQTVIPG

purified protein = substrate: c1ccc2[nH]ccc2c1; experiment: purified protein; assay type: biochemical, Chlamydia trachomatis; conditions: L-Ser co-substrate, 40 uM PLP, 100 mM KCl, pH 8.0, room temperature

Molecule: Cc1ncc(COP(=O)(O)O)c(C=O)c1O [pyridoxal 5′-phosphate]
- X-ray crystal structure, 2.42 Å (CtTrpAB): The CtTrpB active site, marked by the PLP adduct to βLys84

B1: CtTrpAB (Chlamydia trachomatis D/UW-3/CX) (protein)
chain: T1 sequence (O84172 1-392)
- kcat (purified protein): 0.352 s⁻¹
